Measured values reported in patent publication US20120214846A1, “HEXAHYDROCYCLOPENTYL[F]INDAZOLE PYRIDYL ETHANOLS AND DERIVATIVES THEREOF AS SELECTIVE GLUCOCORTICOID RECEPTOR MODULATORS” (MERCK SHARP & DOHME CORP, priority 2009, published 2012).
Like-named read-outs stand apart in the source and are kept apart here.

Assays:
[1] = system: female Sprague-Dawley rats, oxazolone (OX) contact dermatitis; assay: In Vivo Inflammation Assay (oxazolone contact dermatitis model); set-up: key to Inflammation Assay Glucose Effect / GL *: +: the glucose level increased compared to vehicle; −: the glucose level decreased compared to vehicle; conditions: for Inflammation Assay Glucose Effect / Inflammation Assay Anti-inflammatory Effect: rat; for Inflammation Assay Glucose Effect: glucose level compared to vehicle; for Inflammation Assay Anti-inflammatory Effect: relative to control compound; for GL *: glucose effect
Description: In Vivo Inflammation Assay
Intact adult (6 month old) female Sprague-Dawley rats are used in the oxazolone (OX) contactdermatitis model. Rats were sensitized on the ventral abdomen with OX on Day 0. On Days 7 and 9, a randomly-selected ear was challenged (same ear each time) with OX; the other was treated with vehicle. Daily treatment begun on Day 7 and continued for 7d with test compounds at different doses and 1.3 mpk 6-methlyprednisolone or 0.1 mpk DEX as positive controls. The thickness of both ears are measured on Days 11 and 14. Necropsy occurred on Day 14. The rat is first weighed, then anesthetized in a CO2 chamber until near death. Approximately 5 ml whole blood is obtained by cardiac puncture. The rat is then examined for certain signs of death and completeness. Tissues are dissected in a highly stylized fashion. Then the following endpoints were evaluated: a) inhibiting ear inflammation induced by oxazalone, b) raising serum insulin, c) reducing serum ACTH, d) reducing spleen weight, e) reducing skin thickness, f) reducing body weight, g) increasing expression of bone-related genes with potential relationship to negative glucocorticoid effects on bone; e) changes in molecular markers that correlate with skin inflammation, skin thinning, muscle atrophy and glucose metabolism in liver. All blood samples were collected between 1330-1530 hours, ˜4-5 hrs after the last compound treatment.
Primary data for this assay are left and right ear thickness. Inter-ear thickness difference (etd) is used for the estimating the level of inflammation and effectiveness of the compounds is determined by their ability to reduce the increase the thickness of the inflamed ear. Back of the rat skin thickness, spleen weight, serum insulin as well as the effects of gcs on the expression of molecular markers in skin inflammation, skin atrophy, muscle atrophy and glucose metabolism in liver are measured. Data are analyzed by anova plus fisher plsd post-hoc test to identify intergroup differences.

GR = biological target: T1, GR (Homo sapiens, UniProt P04150); assay: GR Ligand Binding Assay (GR BIND), HeLa cell lysate, 3H-DEX; set-up: endogenous in cells; host or cells: HeLa (ATCC) cell lysate supernatant
T1 sequence (P04150 1-777): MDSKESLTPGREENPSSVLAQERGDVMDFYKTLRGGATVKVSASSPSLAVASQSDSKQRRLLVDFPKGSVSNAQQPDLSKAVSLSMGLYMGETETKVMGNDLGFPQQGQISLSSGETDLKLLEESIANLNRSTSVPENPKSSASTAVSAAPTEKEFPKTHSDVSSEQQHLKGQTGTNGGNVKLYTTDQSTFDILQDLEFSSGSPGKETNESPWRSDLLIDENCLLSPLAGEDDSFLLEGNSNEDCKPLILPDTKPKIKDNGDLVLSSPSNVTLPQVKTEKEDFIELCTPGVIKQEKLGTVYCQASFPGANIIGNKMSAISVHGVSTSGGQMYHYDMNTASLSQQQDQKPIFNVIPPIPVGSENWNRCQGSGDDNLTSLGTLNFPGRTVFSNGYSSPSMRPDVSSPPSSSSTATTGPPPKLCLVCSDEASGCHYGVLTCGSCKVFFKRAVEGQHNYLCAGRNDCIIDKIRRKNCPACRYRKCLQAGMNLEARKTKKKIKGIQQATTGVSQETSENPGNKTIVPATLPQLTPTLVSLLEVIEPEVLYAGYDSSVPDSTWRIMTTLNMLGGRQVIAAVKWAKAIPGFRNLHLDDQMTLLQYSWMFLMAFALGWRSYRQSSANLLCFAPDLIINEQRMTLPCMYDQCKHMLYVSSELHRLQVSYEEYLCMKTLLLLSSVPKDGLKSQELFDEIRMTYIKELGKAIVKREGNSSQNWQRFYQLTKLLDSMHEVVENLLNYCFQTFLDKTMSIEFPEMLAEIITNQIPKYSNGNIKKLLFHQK
Description: Binding Buffer: TEGM (10 mM Tris-HCl, 1 mM EDTA, 10% glycerol, 1 mM beta-mecaptoethanol, 10 mM Sodium Molybdate, pH 7.2)
Phenol red-free Trypsin-EDTA is diluted in the same PBS 1:10. The cell layers are rinsed with 1× Trypsin, extra Trypsin is poured out, and the cell layers are incubated at 37° C. for ˜2 min. The flask is tapped and checked for signs of cell detachment. Once the cells begin to slide off the flask, the complete media is added. The cells are counted at this point, then diluted to the appropriate concentration and split into flasks or dishes for further culturing (Usually 1:3 to 1:6 dilution).
The cell pellet is washed twice with TEGM (10 mM Tris-HCl, 1 mM EDTA, 10% glycerol, 1 mM beta-mercaptoethanol, 10 mM Sodium Molybdate, pH 7.2). […] The cell suspension is snap frozen in liquid nitrogen or ethanol/dry ice bath and transferred to −80° C. freezer on dry ice. Before setting up the binding assay, the frozen samples are left on ice-water to just thaw (˜1 hr). Then the samples are centrifuged at 12,500 g to 20,000 g for 30 min at 4° C. The supernatant is used to set-up assay right away. If using 50 μL of supernatant, the test compound can be prepared in 50 μL of the TEGM buffer.
1×TEGM buffer is prepared, and the isotope-containing assay mixture is prepared in the following order: EtOH (2% final concentration in reaction), 3H-DEX (Amersham Biosciences) and 1×TEGM. [e.g. For 100 samples, 200 μL (100×2) of EtOH+4.25 μL of 1:10 3H-Dex stock+2300 μL (100×23) 1×TEGM]. The compound is serially diluted, e.g., if starting final conc. is 1 μM, and the compound is in 25 μL of solution, for duplicate samples, 75 μL of 4×1 μM solution is made and 3 μL of 100 μM is added to 72 μL of buffer, and 1:5 serial dilution.
25 μL of 3H-DEX (6 nM) trace and 25 μl, compound solution are first mixed together, followed by addition of 50 μL receptor solution. The reaction is gently mixed, spun briefly at about 200 rpm and incubated at 4° C. overnight. 100 μL of 50% HAP slurry is prepared and added to the incubated reaction which is then vortexed and incubated on ice for 5 to 10 minutes. The reaction mixture is vortexed twice more to resuspend HAP while incubating reaction. The samples in 96-well format are then washed in wash buffer using The FilterMate™ Universal Harvester plate washer (Packard). The washing process transfers HAP pellet containing ligand-bound expressed receptor to Unifilter-96 GF/B filter plate (Packard). The HAP pellet on the filter plate is incubated with 50 μL of MICROSCINT (Packard) scintillint for 30 minutes before being counted on the TopCount microscintillation counter (Packard). IC50s are calculated using DEX as a reference.

[2] = HeLa cell lysate, 3H-DEX, read-out: GR BIND Ki
[3] = Table 4, literature compounds, read-out: GR BIND

Ki (GR; [2]) [nM] | SMILES | Inflammation Assay Glucose Effect [1] | Inflammation Assay Anti-inflammatory Effect [1] | other results
2.6 | C[C@]12Cc3cnn(-c4ccc(F)cc4)c3C=C1CC[C@@]2(O)CC(O)c1cc(C(F)(F)F)ccn1 (single isomer, unassigned) [Example 5a] |  |  | 
4.3 | C[C@]12Cc3cnn(-c4ccc(F)cc4)c3C=C1CC[C@@]2(O)CC(O)c1cc(C(F)(F)F)ccn1 (single isomer, unassigned) [Example 5b] |  |  | 
10.8 | C[C@]12Cc3cnn(-c4ccc(F)cc4)c3C=C1CC[C@@]2(O)CC(O)c1ccc(F)cn1 (single isomer, unassigned) [Example 7a] |  |  | 
4.8 | C[C@]12Cc3cnn(-c4ccc(F)cc4)c3C=C1CC[C@@]2(O)CC(O)c1ccc(F)cn1 (single isomer, unassigned) [Example 7b] |  |  | 
3.4 | C[C@]12Cc3cnn(-c4ccc(F)cc4)c3C=C1CC[C@@]2(O)CC(O)c1cc(Br)ccn1 (single isomer, unassigned) [Example 10a] |  |  | 
1.7 | C[C@]12Cc3cnn(-c4ccc(F)cc4)c3C=C1CC[C@@]2(O)CC(O)c1cc(Br)ccn1 (single isomer, unassigned) [Example 10b] |  |  | 
 | C[C@]12Cc3cnn(-c4ccc(F)cc4)c3C=C1CC[C@@]2(O)C#Cc1ccccc1 [Ex. 1 WO 04/075840 A2, reference compound] |  |  | GL * ([1]; Table 4, literature compounds): −; Ki (GR; [3]): 1.18 nM
 | C[C@]12Cc3cnn(-c4ccc(F)cc4)c3C=C1CCC[C@@H]2[C@@H](O)Cc1ccccc1 [Ex. 22 WO 03/086294 A2, reference compound] |  |  | GL * ([1]; Table 4, literature compounds): −; Ki (GR; [3]): 1.26 nM
 | C[C@]12Cc3cnn(-c4ccc(F)cc4)c3C=C1CCC[C@@H]2[C@@H](O)CCc1ccccc1 [Ex. 30 WO 03/086294 A2, reference compound] |  |  | GL * ([1]; Table 4, literature compounds): −; Ki (GR; [3]): 1.21 nM
 | C[C@]12Cc3cnn(-c4ccc(F)cc4)c3C=C1CCC[C@@H]2[C@@H](O)c1ccccc1 [Ex. 35 WO 03/86294 A2, reference compound] |  |  | GL * ([1]; Table 4, literature compounds): −; Ki (GR; [3]): 1.17 nM
 | CO[C@@]1(CCc2ccccc2Cl)CCC2=Cc3c(cnn3-c3ccc(F)cc3)C[C@@]21C [Ex. 103 WO 04/075840 A2, reference compound] |  |  | AI* ([1]; Table 4, literature compounds, anti-inflammatory effect): + (the anti-inflammatory activity was equal to or greater than 40% of the effect generated by the control compound); GL * ([1]; Table 4, literature compounds): +; Ki (GR; [3]): 0.23 nM
7.2 | C[C@]12Cc3cnn(-c4ccc(F)cc4)c3C=C1CC[C@@]2(O)CC(O)c1ncccc1F (stereo partly drawn) [Example 4, (4αS,5R)-1-(4-fluorophenyl)-5-[2-(3-fluoropyridin-2-yl)-2-hydroxyethyl]-4α-methyl-1,4,4α,5,6,7-hexahydrocyclopenta[f]indazol-5-ol] |  |  | 
2.7 | C[C@]12Cc3cnn(-c4ccc(F)cc4)c3C=C1CC[C@@]2(O)CC(O)c1ccc(C(F)(F)F)cn1 (stereo partly drawn) [Example 6, (4αS,5R)-1-(4-fluorophenyl)-5-{2-hydroxy-2-[5-(trifluoromethyl)pyridin-2-yl]ethyl}-4α-methyl-1,4,4α,5,6,7-hexahydrocyclopenta[f]indazol-5-ol] |  |  | 

SMILES | Ki (GR; [2]) [nM] | Inflammation Assay Glucose Effect [1] | Inflammation Assay Anti-inflammatory Effect [1] | other results
Cc1cccnc1C(O)C[C@]1(O)CCC2=Cc3c(cnn3-c3ccc(F)cc3)C[C@@]21C (single isomer, unassigned) [Example 1a] | 6.7 | − | + (the anti-inflammatory activity was equal to or greater than 40% of the effect generated by the control compound) | 
Cc1cccnc1C(O)C[C@]1(O)CCC2=Cc3c(cnn3-c3ccc(F)cc3)C[C@@]21C (single isomer, unassigned) [Example 1b] | 3.9 | + |  | 
C[C@]12Cc3cnn(-c4ccc(F)cc4)c3C=C1CC[C@@]2(O)CC(O)c1ccccn1 (single isomer, unassigned) [Example 2a] | 11.7 | − | + (the anti-inflammatory activity was equal to or greater than 40% of the effect generated by the control compound) | 
C[C@]12Cc3cnn(-c4ccc(F)cc4)c3C=C1CC[C@@]2(O)CC(O)c1ccccn1 (single isomer, unassigned) [Example 2b] | 6.4 | − | + (the anti-inflammatory activity was equal to or greater than 40% of the effect generated by the control compound) | 
C[C@]12Cc3cnn(-c4ccc(F)cc4)c3C=C1CC[C@@]2(O)CC(O)c1cc(Cl)ccn1 (single isomer, unassigned) [Example 8a] | 5 | + | + (the anti-inflammatory activity was equal to or greater than 40% of the effect generated by the control compound) | 
C[C@]12Cc3cnn(-c4ccc(F)cc4)c3C=C1CC[C@@]2(O)CC(O)c1cc(Cl)ccn1 (single isomer, unassigned) [Example 8b] | 2.1 | + | + (the anti-inflammatory activity was equal to or greater than 40% of the effect generated by the control compound) | 
COc1ccnc(C(O)C[C@]2(O)CCC3=Cc4c(cnn4-c4ccc(F)cc4)C[C@@]32C)c1 (stereo partly drawn) [Example 3, (4αS,5R)-1-(4-fluorophenyl)-5-[2-hydroxy-2-(4-methoxypyridin-2-yl)ethyl]-4α-methyl-1,4,4α,5,6,7-hexahydrocyclopenta[f]indazol-5-ol] | 4.4 | + | + (the anti-inflammatory activity was equal to or greater than 40% of the effect generated by the control compound) | 
